Legend:
pancreatic organoids = test: intracellular Cl- level (MQAE) in 3D pancreatic organoids; type: cell-based; conditions: 100 µM
Method: To assess the biological activity of CPPs changes of intracellular Cl^— level was measured by loading HEK-293 cells with 5 µM N-(Ethoxycarbonylmethyl)-6-Methoxyquinolinium Bromide (MQAE; ThermoFischer; Catalog number: E3101) for 30 min in the presence of 0.05% Pluronic F-127. Cells were bathed with Cl^— free external solution and treated with different concentrations of CPPs at 37° C. at the perfusion rate of 2-3 ml/min. Region of interests (ROIs) were determined by the xcellence softver (Olympus) and changes of Cl^— were determined by exciting the cells with an MT20 light source equipped with a 340/11 nm excitation filter. Excitation and emission wavelengths were separated by a 400 nm beam splitter and the emitted light was captured by a Hamamatsu ORCA- ER CCD camera. One measurement per second was obtained. During further analysis the fluorescence signals were normalized to the initial fluorescence intensity (F1/F0) and expressed as normalized MQAE fluorescence (FIG. 2). […] N: 4-5 independent experiments/each tested condition.
To test the Cl^— transporting capability of CPPs in primary 3D cells, organoids were loaded with MQAE as above described and bathed in standard HEPES buffered solution (FIG. 4.). […] N: 4-5 independent experiments/each tested condition.

[1] = apoptosis/necrosis detection kit, effect on cell fate; type: cell-based; conditions: human; HEK-293 cells, 100 µM, 30 min; read-out: viable cells after the incubation
Method: (§1) To investigate the effect of compounds according to the invention on cell fate, an apoptosis/necrosis detection kit was used according to the manufacturer’s instruction (Abcam Cat. No.: ab176750). Briefly, HEK-293 cells were incubated with various concentrations of CPPs for 30 min at 37° C. Cells were then washed 3 times and were incubated in 200 µL of Assay Buffer and loaded with CytoCalcein 450, Nuclear Green and Apopxin Deep Red at room temperature for 30-60 min. Following this, cells were washed and imaged. Images were captured using a Zeiss LSM880 confocal microscope with different channels and wavelengths according to each dye: CytoCalcein 450 (Ex/Em = 405/450 nm), Nuclear Green (Ex/Em = 490/520 nm) and Apopxin Deep Red (Ex/Em = 630/660 nm). For each condition, five images were captured and the total number of cells were counted by two independent investigators. Results are visualized in % of total cell number (live/apoptotic/necrotic) (FIG. 1). […] However, the majority of cells survived the treatment.

HEK-293 cells = test: as above; type: cell-based; conditions: for apoptotic cell death: 30 min; for necrotic cell death: 30 min incubation at 37° C.; for toxicity: even in 100 µM
Method: as §1

CFTR knockout mice = test: severity of lung fibrosis in Cftr knockout mice, nebulized treatment; type: in vivo, mouse
Text: To assess the effect of in vivo administrated Formula (II) on lung histology parameters, this Example use Cftr^tm1UncTg(FABPCFTR)1Jaw/J mice (Jackson Laboratory, Stock No: 002364). FABP-hCFTR-CFTR bitransgenic mice harbor the FABP-hCFTR transgene [rat fatty acid binding protein 2, intestinal promoter directing expression of a human cystic fibrosis transmembrane conductance regulator (ATP-binding cassette sub-family C, member 7) gene] and a targeted knock-out mutation of the cystic fibrosis transmembrane conductance regulator homolog gene (Cftr). The mice used in this study were 8-12 weeks old and weighted 20-25 grams in the case of wild type (WT) animals and 15-17 grams in the case of CFTR knockout animals, the gender ratio was 1:1 for all groups. Experiments were carried out with adherence to the NIH guidelines and the EU directive 2010/63/EU for the protection of animals used for scientific purposes. The study was authorized by the National Scientific Ethical Committee on Animal Experimentation under license number XXI./1540/2020. Formula (II) was dissolved in physiological saline in a concentration of 10 µM. Treated mice received 400 µL Formula (II) dissolved in physiological saline solution in 5 minutes in a nebulizer in continuous oxygen flow (2L/min). Control animals received physiological saline as vehicle. The mice were grouped into 4 treatment groups as follows: wild type control (Group 1), CFTR knockout control (Group 2), wild type treated (Group 3), CFTR knockout treated (Group 4). Treatment was performed daily for 4 weeks. At the end of the experiments, mice received terminal anesthesia and the lungs were removed. Lungs were fixed for histology and trichrome staining was performed to assess lung parenchyma density and lung fibrosis. Sections were digitalized and fibrosis was scored as follows. 1388×1038 resolution pictures were taken with 10x and 40x magnification objectives with Zeiss ICc3 camera. […] Positive pixels were counted as fibrosis, negative pixels were counted as tissue. […]

Compound	effect on the fluorescent increase after removal of extracellular Cl- (CFTR-mediated Cl- efflux) (pancreatic organoids)	viability at 0.5 h, 100 µM [1] [%]	apoptotic cell death (HEK-293 cells; 10 µM)	apoptotic cell death (HEK-293 cells; 100 µM)	necrotic cell death (HEK-293 cells)	toxicity (HEK-293 cells)	body weight (CFTR knockout mice; all groups, 4 weeks of daily treatment)	adverse events during the treatment (CFTR knockout mice; mice, nebulized daily for 4 weeks)	clinical signs of toxicity (CFTR knockout mice; treated animals, nebulized daily for 4 weeks)
O=C(O)c1ccc(/C=C2\SC(=S)N(c3cccc(C(F)(F)F)c3)C2=O)cc1 [CFTRinh172]	almost completely abolished the fluorescent increase	–	–	–	–	–	–	–	–
CC[C@H](C)[C@H](NC(=O)[C@H](CCCCN)NC(=O)[C@@H](NC(=O)[C@H](CCC(N)=O)NC(=O)[C@H](CCCNC(=N)N)NC(=O)CCCCCNC(=S)Nc1cc(C(F)(F)F)cc(C(F)(F)F)c1)[C@@H](C)CC)C(=O)N[C@@H](Cc1c[nH]c2ccccc12)C(=O)N[C@@H](Cc1ccccc1)C(=O)N[C@@H](CCC(N)=O)C(=O)N[C@@H](CC(N)=O)C(=O)N[C@@H](CCCNC(=N)N)C(=O)N[C@@H](CCCNC(=N)N)C(=O)N[C@@H](CCSC)C(=O)N[C@@H](CCCCN)C(=O)N[C@@H](Cc1c[nH]c2ccccc12)C(=O)N[C@@H](CCCCN)C(=O)N[C@@H](CCCCN)C(N)=O [Formula (II)]	–	97.3	limited rate of apoptotic cell death	limited rate of apoptotic cell death	no necrotic cell death was observed	negligible toxicity	maintained their initial weights	no adverse events were observed	No clinical signs of toxicity were observed
CC[C@H](C)[C@H](NC(=O)[C@H](CCCCN)NC(=O)[C@@H](NC(=O)[C@H](CCC(N)=O)NC(=O)[C@H](CCCNC(=N)N)NC(=O)c1ccc(N=C=S)cc1)[C@@H](C)CC)C(=O)N[C@@H](Cc1c[nH]c2ccccc12)C(=O)N[C@@H](Cc1ccccc1)C(=O)N[C@@H](CCC(N)=O)C(=O)N[C@@H](CC(N)=O)C(=O)N[C@@H](CCCNC(=N)N)C(=O)N[C@@H](CCCNC(=N)N)C(=O)N[C@@H](CCSC)C(=O)N[C@@H](CCCCN)C(=O)N[C@@H](Cc1c[nH]c2ccccc12)C(=O)N[C@@H](CCCCN)C(=O)N[C@@H](CCCCN)C(N)=O [Formula (III)]	–	97.3	–	limited rate of apoptotic cell death	no necrotic cell death was observed	negligible toxicity	–	–	–

— patent US20230173084A1, “PEPTIDE-BASED SYNTHETIC CHLORIDE ION TRANSPORTERS” (Tavanta Therapeutics Hungary Incorporated, priority 2019, published 2023)
